Several values for one entry are separate records, joined by “and”; a condition that tells them apart may be missing. Identical values can stand only once.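 Exposure lasted 48 hours, with cells grown in 96-well plates and compounds tested at five concentrations. Here, GI50 denotes the concentration required for 50% inhibition of growth. TGI: concentration producing complete growth inhibition.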
Experiments:
Experiment in all cases: growth of human tumour cells (NCI), 48 h
[1] = system: ACHN renal
[2] = system: EKVX NSCLC
[3] = system: HCT-116 colon
[4] = system: HOP-62 NSCLC
[5] = system: IGROV1 ovarian
[6] = system: KM20L2 colon
[7] = system: M19-MEL melanoma
[8] = system: NCI-H522 lung
[9] = system: SW-620 colon
[10] = system: UACC-257 melanoma

Cc1c(/C=N/NC(=O)c2ccccc2)c(=O)n(-c2ccccc2)n1C
TGI [1]: > 100 µM | TGI [2]: > 100 µM | TGI [3]: > 100 µM | TGI [4]: > 100 µM | TGI [5]: > 100 µM | TGI [6]: > 100 µM | TGI [7]: > 100 µM | TGI [8]: > 100 µM | TGI [9]: > 100 µM | TGI [10]: > 100 µM

Cn1c(=O)nc2n(-c3ccc(F)cc3)c3ccccc3nc-2c1=O
TGI [1]: 49.7 µM | TGI [2]: 32 µM | TGI [3]: 37.9 µM | TGI [4]: > 100 µM | TGI [5]: 56.5 µM | TGI [6]: 48.7 µM | TGI [7]: 10.6 µM | TGI [8]: 35.4 µM | TGI [9]: 34 µM | TGI [10]: 28.5 µM

Nc1nc(=O)n(C2CC(O)C(O)C(CO)O2)cc1F (centres undefined)
TGI [1]: > 100 µM | TGI [2]: > 100 µM | TGI [3]: > 100 µM | TGI [4]: > 100 µM | TGI [5]: > 100 µM | TGI [6]: > 100 µM | TGI [7]: > 100 µM | TGI [8]: > 100 µM | TGI [9]: > 100 µM | TGI [10]: > 100 µM

NC(=O)c1nnn(Cc2cc(Cl)c(C(=O)c3ccc(Cl)cc3)c(Cl)c2)c1N
TGI [1]: > 9.09 µM and 35.1 µM | GI50 [2]: > 9.09 µM | TGI [2]: > 9.09 µM and 37.5 µM | GI50 [3]: > 9.09 µM | TGI [3]: > 9.09 µM and 35.2 µM | GI50 [4]: > 9.09 µM | TGI [4]: > 9.09 µM and 41.1 µM | GI50 [5]: > 9.09 µM | TGI [5]: > 9.09 µM and 44.2 µM | GI50 [6]: 2.79 µM | TGI [6]: > 9.09 µM and 17.4 µM | GI50 [7]: 14.1 µM | TGI [7]: > 9.09 µM and 27.4 µM | GI50 [8]: > 9.09 µM | TGI [8]: > 9.09 µM and 38.8 µM | GI50 [9]: > 9.09 µM | TGI [9]: > 9.09 µM and 50.1 µM | GI50 [10]: 6.96 µM | TGI [10]: > 9.09 µM and 33.7 µM

COCC1C(=O)c2cc3c(cc2C12C=CC1(C=C2)OCCO1)OCO3 (centres undefined)
TGI [1]: 25.3 µM | TGI [2]: 30.4 µM | TGI [3]: 6.77 µM | TGI [4]: 36.2 µM | TGI [5]: 29.4 µM | TGI [6]: 22.7 µM | TGI [7]: 14.7 µM | TGI [8]: 3.96 µM | TGI [9]: 8.76 µM | TGI [10]: 32.6 µM

COC(=O)NNc1c([N+](=O)[O-])cnn(-c2ccccc2)c1=O
TGI [1]: 10.2 µM | TGI [2]: 9.75 µM | TGI [3]: 3.9 µM | TGI [4]: 14.9 µM | TGI [5]: 36.2 µM | TGI [6]: 7.78 µM | TGI [7]: 3.43 µM | TGI [8]: 2.6 µM | TGI [9]: 2.24 µM | TGI [10]: 6.33 µM

CCOC(=O)NC(=O)c1cn(CCCCCOC(=O)NCCCCCCNC(=O)OCCCCCn2cc(C(=O)NC(=O)OCC)c(=O)[nH]c2=O)c(=O)[nH]c1=O
TGI [1]: > 100 µM | TGI [2]: > 100 µM | TGI [3]: > 100 µM | TGI [4]: > 100 µM | TGI [5]: > 100 µM | TGI [6]: > 100 µM | TGI [7]: > 100 µM | TGI [8]: > 100 µM | TGI [9]: > 100 µM | TGI [10]: > 100 µM

CNc1nnnn1C1OC(CO)C(O)C1O (centres undefined)
TGI [1]: > 100 µM | TGI [2]: > 100 µM | TGI [3]: > 100 µM | TGI [4]: > 100 µM | TGI [5]: > 100 µM | TGI [6]: > 100 µM | TGI [7]: > 100 µM | TGI [8]: > 100 µM | TGI [9]: > 100 µM | TGI [10]: > 100 µM

COc1c(OC(C)=O)c(OC(C)=O)cc2c1-c1ccc(OC)c(=O)cc1C(NC(C)=O)CC2 (centres undefined)
TGI [1]: > 100 µM | TGI [2]: > 100 µM | TGI [3]: 0.942 µM | TGI [4]: > 73 µM | TGI [5]: > 100 µM | TGI [6]: 0.0795 µM | TGI [7]: > 100 µM | TGI [8]: 0.0192 µM | TGI [9]: > 100 µM | TGI [10]: > 100 µM

O=c1oc2c3ccc4ccccc4c3n(CCN3CCOCC3)c2c2ccccc12
TGI [1]: > 100 µM | TGI [2]: > 100 µM | TGI [3]: > 100 µM | TGI [4]: > 100 µM | TGI [5]: > 100 µM | TGI [6]: > 100 µM | TGI [7]: > 100 µM | TGI [8]: > 100 µM | TGI [9]: > 100 µM | TGI [10]: > 100 µM
